# From patent US8252803B2 (Merck Sharp & Dohme Corp., priority 2007, dated 2012)
# Target: T1, γ-secretase, Aβ(1-42) production, SH-SY5Y neuroblastoma cells overexpressing SPA4CT (Homo sapiens, UniProt P49768)
# T1 construct: Human SH-SY5Y neuroblastoma cells overexpressing the direct γ-secretase substrate SPA4CT; endogenous in cells; host or cells: human SH-SY5Y neuroblastoma cells stably overexpressing the substrate SPA4CT, induced with sodium butyrate
# Assay: Cell-Based γ-Secretase Assay, Aβ(42) detection
# Settings: overnight incubation, read-out: IC50 values for Aβ(1-42) inhibition
# Protocol: Cell-Based γ-Secretase Assay
# Human SH-SY5Y neuroblastoma cells overexpressing the direct γ-secretase substrate SPA4CT were induced with sodium butyrate (10 mM) for 4 hours prior to plating. Cells were plated at 35,000 cells/well/100 μl in 96-well plates in phenol red-free MEM/10% FBS, 50 mM HEPES, 1% Glutamine and incubated for 2 hrs at 37° C., 5% CO2.
# Compounds for testing were diluted into Me2SO to give a ten point dose-response curve. Typically 10 μl of these diluted compounds in Me2SO were further diluted into 182 μl dilution buffer (phenol red-free MEM/10% FBS, 50 mM HEPES, 1% Glutamine) and 10 μl of each dilution was added to the cells in 96-well plates (yielding a final Me2SO concentration of 0.5%). Appropriate vehicle and inhibitor controls were used to determine the window of the assay.
# After incubation overnight at 37° C., 5% CO2, 25 μl and 50 μl media were transferred into a standard Meso avidin-coated 96-well plate for detection of Aβ(40) and Aβ(42) peptides, respectively. 25 μl Meso Assay buffer (PBS, 2% BSA, 0.2% Tween-20) was added to the Aβ(40) wells followed by the addition of 25 μl of the respective antibody premixes to the wells:
# Aβ(42) premix: 1 μg/ml ruthenylated G2-11 antibody, 4 μg/ml biotinylated 4G8 antibody diluted in Origen buffer
# (Biotinylated 4G8 antibody supplied by Signet Pathology Ltd; G2-10 and G2-11 antibodies supplied by Chemicon)
# After overnight incubation of the assay plates on a shaker at 4° C., the Meso Scale Sector 6000 Imager was calibrated according to the manufacturer's instructions. After washing the plates 3 times with 150 μl of PBS per well, 150 μl Meso Scale Discovery read buffer was added to each well and the plates were read on the Sector 6000 Imager according to the manufacturer's instructions.
# LD50 and IC50 values for inhibition of Aβ(40) and Aβ(42) were calculated by nonlinear regression fit analysis using the appropriate software (eg. Excel fit). The total signal and the background were defined by the corresponding Me2SO and inhibitor controls.
row,Structure (SMILES),IC50 [µM]
1,"Cc1ccc(C(C)C)cc1Nc1ccnc(N2CCC(n3ccnn3)CC2)n1 [Example 12, N-(5-isopropyl-2-methylphenyl)-2-[4-(1H-1,2,3-triazol-1-yl)piperidin-1-yl]pyrimidin-4-amine]",3 to 6
2,"CCN(CC)c1ccc(Nc2ccnc(N3CCC(n4ccnc4)CC3)n2)c(C)c1 [Example 7, N4,N4-diethyl-N1-{2-[4-(1H-imidazol-1-yl)piperidin-1-yl]pyrimidin-4-yl}-2-methylbenzene-1,4-diamine]",3 to 6
3,"CCOc1cc(C)c(Nc2nc(N3CCC(n4ccnn4)CC3)ncc2Cl)cc1C(C)C [Example 19, 5-chloro-N-(4-ethoxy-5-isopropyl-2-methylphenyl)-2-[4-(1H-1,2,3-triazol-1-yl)piperidin-1-yl]pyrimidin-4-amine]",1.5 to 3
4,"CCN(CC)c1ccc(Nc2ccnc(N3CCC(n4ccnn4)CC3)n2)c(C)c1 [Example 8, N4,N4-diethyl-2-methyl-N1-{2-[4-(1H-1,2,3-triazol-1-yl)piperidin-1-yl]pyrimidin-4-yl}benzene-1,4-diamine]",3 to 6
5,"CCOc1cc(C)c(Nc2nc(N3CCC(n4cc(C)nn4)CC3)ncc2Cl)cc1C(C)C [Example 23, 5-chloro-N-(4-ethoxy-5-isopropyl-2-methylphenyl)-2-[4-(4-methyl-1H-1,2,3-triazol-1-yl)piperidin-1-yl]pyrimidin-4-amine]",1.5 to 3
6,"CCN(CC)c1ccc(Nc2ccnc(N3CCC4(CCCN4)CC3)n2)c(C)c1 [Example 4, N1-[2-(1,8-diazaspiro[4.5]dec-8-yl)pyrimidin-4-yl]-N4,N4-diethyl-2-methylbenzene-1,4-diamine]",3 to 6
7,"Cc1ccc(C(C)(C)C)cc1Nc1nc(N2CCC(n3ccnn3)CC2)ncc1F [Example 1, N-(5-tert-butyl-2-methylphenyl)-5-fluoro-2-[4-(1H-1,2,3-triazol-1-yl)piperidin-1-yl]pyrimidin-4-amine]",3 to 6
8,"CCOc1cc(C)c(Nc2nc(N3CCC(n4ccnc4)CC3)ncc2Cl)cc1C(C)C [Example 20, 5-chloro-N-(4-ethoxy-5-isopropyl-2-methylphenyl)-2-[4-(1H-imidazol-1-yl)piperidin-1-yl]pyrimidin-4-amine]",1.5 to 3
9,"Cc1ccc(C(C)(C)C)cc1Nc1nc(N2CCC(n3ccnc3)CC2)ncc1F [Example 17, N-(5-tert-butyl-2-methylphenyl)-5-fluoro-2-[4-(1H-imidazol-1-yl)piperidin-1-yl]pyrimidin-4-amine]",3 to 6
10,"Cc1ccc(C(C)(C)C)cc1Nc1cc(S(C)(=O)=O)nc(N2CCC(n3ccnc3)CC2)n1 [Example 18, N-(5-tert-butyl-2-methylphenyl)-2-[4-(1H-imidazol-1-yl)piperidin-1-yl]-6-(methylsulfonyl)pyrimidin-4-amine]",3 to 6

# Results, then the molecule that gave them:
row,IC50 [µM],Structure (SMILES)
1,0.5 to 1.5,"CCOc1cc(C)c(Nc2ccnc(N3CCC(n4ccnn4)CC3)n2)cc1C(C)C [Example 10, N-(4-ethoxy-5-isopropyl-2-methylphenyl)-2-[4-(1H-1,2,3-triazol-1-yl)piperidin-1-yl]pyrimidin-4-amine]"
2,0.5 to 1.5,"Cc1ccc(C(C)(C)C)cc1Nc1ccnc(N2CCC(n3ccnc3)CC2)n1 [Example 16, N-(5-tert-butyl-2-methylphenyl)-2-[4-(1H-imidazol-1-yl)piperidin-1-yl]pyrimidin-4-amine]"
3,1.5 to 3,"CCN(CC)c1ccc(Nc2ccnc(N3CCC(c4nnc(-c5ccccc5)o4)CC3)n2)c(C)c1 [Example 14, N4,N4-diethyl-2-methyl-N1-{2-[4-(5-phenyl-1,3,4-oxadiazol-2-yl)piperidin-1-yl]pyrimidin-4-yl}benzene-1,4-diamine]"
4,< 0.5,"CCOc1cc(C)c(Nc2cc(CO)nc(N3CCC(n4ccnc4)CC3)n2)cc1C(C)C [Example 25, {6-[(4-ethoxy-5-isopropyl-2-methylphenyl)amino]-2-[4-(1H-imidazol-1-yl)piperidin-1-yl]pyrimidin-4-yl}methanol]"
5,< 0.5,CCOc1cc(C)c(Nc2cc(C(=O)OC)nc(N3CCC(n4ccnc4)CC3)n2)cc1C(C)C [Example 24]
6,0.5 to 1.5,"Cc1ccc(C(C)(C)C)cc1Nc1ccnc(N2CCC(n3ccnn3)CC2)n1 [Example 15, N-(5-tert-butyl-2-methylphenyl)-2-[4-(1H-1,2,3-triazol-1-yl)piperidin-1-yl]pyrimidin-4-amine]"
7,< 0.5,"CCOc1cc(C)c(Nc2ccnc(N3CCC(n4ccnc4)CC3)n2)cc1C(C)C [Example 11, N-(4-ethoxy-5-isopropyl-2-methylphenyl)-2-[4-(1H-1,2,3-imidazol-1-yl)piperidin-1-yl]pyrimidin-4-amine]"
8,0.5 to 1.5,"CCOc1cc(C)c(Nc2nc(N3CCC(n4ccnn4)CC3)ncc2F)cc1C(C)C [Example 21, N-(4-ethoxy-5-isopropyl-2-methylphenyl)-5-fluoro-2-[4-(1H-1,2,3-triazol-1-yl)piperidin-1-yl]pyrimidin-4-amine]"
9,0.5 to 1.5,"CCOc1cc(C)c(Nc2nc(N3CCC(n4ccnc4)CC3)ncc2F)cc1C(C)C [Example 22, N-(4-ethoxy-5-isopropyl-2-methylphenyl)-5-fluoro-2-[4-(1H-imidazol-1-yl)piperidin-1-yl]pyrimidin-4-amine]"
